± gives the expanded uncertainty stated by the source.

The conditions of this data set: Crystal; DTA.

As for `COc1c([N+](=O)[O-])cc(Cn2ccnn2)cc1[N+](=O)[O-]` [1-(4-methoxy-3,5-dinitrobenzyl)-1H-1,2,3-triazole], the Normal melting temperature amounted to 90.13 ± 3 °C.

Take `COc1ccc([N+](=O)[O-])c(-n2ccnn2)c1[N+](=O)[O-]` [1-(3-methoxy-2,6-dinitrophenyl)-1H-1,2,3-triazole]: the Normal melting temperature was determined as 168.96 ± 3 °C.

Values taken from the NIST ThermoML archive (doi:10.1016/j.tca.2015.06.020).
